# Assay results published in patent publication US20260117203A1, “MUTANT KETOREDUCTASE WITH INCREASED KETOREDUCTASE ACTIVITY AS WELL AS METHODS AND USES INVOLVING THE SAME” (Hoffmann-La Roche Inc., priority 2023, published 2026).
# Residue numbers refer to the chain shown, from its start.
# Assays:
# Type in all cases: biochemical
# [1] = molecular target: T1, Sporidiobolus salmonicolor ketoreductase variant E00128, Trp97_Met241_Trp242_Ser245, SEQ ID NO: 2, His-tag (Sporobolomyces salmonicolor, UniProt Q9UUN9, F97W/L241M/M242W/Q245S); test: Kinetic characterization (app. KM, app. kcat), Table 9c, variant E00128; conditions: E00128, relative to WT = 1
# T1 sequence (Q9UUN9 1-343 F97W/L241M/M242W/Q245S): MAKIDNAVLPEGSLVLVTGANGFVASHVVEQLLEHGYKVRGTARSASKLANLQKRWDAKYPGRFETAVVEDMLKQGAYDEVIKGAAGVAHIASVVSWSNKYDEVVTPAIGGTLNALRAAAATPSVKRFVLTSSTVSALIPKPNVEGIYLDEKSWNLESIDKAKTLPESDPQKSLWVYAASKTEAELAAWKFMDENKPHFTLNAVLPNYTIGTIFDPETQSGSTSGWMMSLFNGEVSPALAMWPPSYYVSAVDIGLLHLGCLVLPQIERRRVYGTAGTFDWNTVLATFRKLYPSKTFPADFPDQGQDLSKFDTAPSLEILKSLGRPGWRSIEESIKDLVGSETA
# [2] = molecular target: T2, Sporidiobolus salmonicolor ketoreductase variant E00184, Trp97_Ala224_Lys238_Met241_Trp242_Ser245_Gly246_Met316_Met342, SEQ ID NO: 8, His-tag (Sporobolomyces salmonicolor, UniProt Q9UUN9, A238K/F97W/L241M/L316M/M242W/Q245S/S224A/T342M/Y246G); test: Kinetic characterization (app. KM, app. kcat), Table 9c, variant E00184 (first line); conditions: relative to WT = 1
# T2 sequence (Q9UUN9 1-343 F97W/S224A/A238K/L241M/M242W/Q245S/Y246G/L316M/T342M): T1 sequence (Q9UUN9 1-343 F97W/L241M/M242W/Q245S) with S224A, A238K, Y246G, L316M, T342M
# [3] = molecular target: T3, Sporidiobolus salmonicolor ketoreductase variant E00144, Trp97_Met241_Trp242_Ser245_Met316_Met342, SEQ ID NO: 3, His-tag (Sporobolomyces salmonicolor, UniProt Q9UUN9, F97W/L241M/L316M/M242W/Q245S/T342M); test: Kinetic characterization (app. KM, app. kcat), Table 9c, variant E00144; conditions: E00144, relative to WT = 1
# T3 sequence (Q9UUN9 1-343 F97W/L241M/M242W/Q245S/L316M/T342M): T1 sequence (Q9UUN9 1-343 F97W/L241M/M242W/Q245S) with L316M, T342M
# [4] = molecular target: T4, Sporidiobolus salmonicolor ketoreductase variant E00184 (second line so labelled); in Table 9b W97 V134 A224 K238 M241 W242 S245 G246 M316 M342, the mutations of (Sporobolomyces salmonicolor, UniProt Q9UUN9, A238K/F97W/L241M/L316M/M242W/Q245S/S224A/T134V/T342M/Y246G); test: Kinetic characterization (app. KM, app. kcat), Table 9c, variant E00184 (second line); conditions: relative to WT = 1
# T4 construct: second row labelled E00184, evidently E00185
# T4 sequence (Q9UUN9 1-343 F97W/T134V/S224A/A238K/L241M/M242W/Q245S/Y246G/L316M/T342M): T1 sequence (Q9UUN9 1-343 F97W/L241M/M242W/Q245S) with T134V, S224A, A238K, Y246G, L316M, T342M
# [5] = molecular target: T5, Sporidiobolus salmonicolor ketoreductase, wild type (WT), UniProt Q9UUN9, SEQ ID NO: 1 (Sporobolomyces salmonicolor, UniProt Q9UUN9); test: Kinetic characterization (app. KM, app. kcat), Table 9c, wild type; conditions: reference = 1
# T5 sequence (Q9UUN9 1-343): T1 sequence (Q9UUN9 1-343 F97W/L241M/M242W/Q245S) with W97F, M241L, W242M, S245Q
# [6] = molecular target: T6, Sporidiobolus salmonicolor ketoreductase variant E00174, Trp97_Lys238_Met241_Trp242_Ser245_Gly246_Met316_Met342, SEQ ID NO: 7, His-tag (Sporobolomyces salmonicolor, UniProt Q9UUN9, A238K/F97W/L241M/L316M/M242W/Q245S/T342M/Y246G); test: Kinetic characterization (app. KM, app. kcat), Table 9c, variant E00174
# T6 sequence (Q9UUN9 1-343 F97W/A238K/L241M/M242W/Q245S/Y246G/L316M/T342M): T1 sequence (Q9UUN9 1-343 F97W/L241M/M242W/Q245S) with A238K, Y246G, L316M, T342M
# [7] = molecular target: T7, Sporidiobolus salmonicolor ketoreductase variant E00158, Trp97_Lys238_Met241_Trp242_Ser245_Met316_Met342, SEQ ID NO: 6, His-tag (Sporobolomyces salmonicolor, UniProt Q9UUN9, A238K/F97W/L241M/L316M/M242W/Q245S/T342M); test: Kinetic characterization (app. KM, app. kcat), Table 9c, variant E00158; conditions: E00158, relative to WT = 1
# T7 sequence (Q9UUN9 1-343 F97W/A238K/L241M/M242W/Q245S/L316M/T342M): T1 sequence (Q9UUN9 1-343 F97W/L241M/M242W/Q245S) with A238K, L316M, T342M
compound,measurement,setting,value
C[C@@H]1CC(=O)c2ncnc(N3CCN(C(=O)OC(C)(C)C)CC3)c21 [ketone of formula Ib],rel. kcat,[1],12
same,rel. kcat,[2],43
same,rel. kcat,[3],13
same,rel. kcat,[4],64
same,rel. kcat,[5],1
same,rel. kcat,"[6]; relative to WT = 1, substrate saturation not reached",94
same,app. kcat,[6]; substrate saturation not reached,45.8 ± 2.4 min−^1
same,rel. kcat,[7],31
